O=C(Nc1ccc(Cl)cc1)Nc1ccc(Cl)c(Cl)c1
solubility (mole fraction)
Details | 288.15 K | 293.15 K | 298.15 K | 303.15 K | 308.15 K | 313.15 K | 318.15 K
in 1,4-dioxane | 0.00103 | 0.00176 | 0.00239 | 0.00403 | 0.00658 | 0.00931 | 0.0141
in cyclohexane | 1.68e-07 | 2.73e-07 | 4.23e-07 | 7.31e-07 | 1.17e-06 | 1.82e-06 | 2.72e-06

From BigSolDB 2.1
